Earlier results on one molecule are cited in US8980889B2, “Pyrazole derivative” (Mochida Pharmaceutical Co., Ltd., priority 2013, dated 2015).

Common to all, as to settings: U.S. Patent Application No. 2003/0032579
Data set [1] relates to rats.
Data set [2] deals with rat.
The subject of data set [3] is rat brain.

Each structure is given as a SMILES string.

For `COc1ccc(Cc2nccc3cc(OC)c(OC)cc23)cc1OC` [papaverine], in data set [1], the apomorphine-induced stereotypy result is “decreases”. In data set [2], the haloperidol-induced catalepsy entry is given as “increases”. The “dopamine level in the rat brain” value in data set [3] is listed as “decreases”.
